Source: the NIST ThermoML archive (doi:10.1021/acs.jced.7b01049)

Test: xn = mol fraction of the nth substance listed
Settings: for surface tension liquid-gas / mass density: discharge crucible method; for mass density / viscosity: 100 kPa, Liquid; for viscosity: discharge crucible

[Pb] [lead] + [Sb]
Settings	mass density [kg/m3]	surface tension liquid-gas [mN/m]	viscosity [mPa·s]
573 K, x2 = 0.1675	10206	437.1	2.565
623 K, x2 = 0.1675	10142	433.7	2.262
673 K, x2 = 0.1675	10087	429.9	1.999
673 K, x2 = 0.4	9263	418.3	1.873
723 K, x2 = 0.1675	10019	426.6	1.836
723 K, x2 = 0.4	9201	414.6	1.721
773 K, x2 = 0.1675	9963	422.8	1.694
773 K, x2 = 0.4	9143	411.5	1.573
773 K, x2 = 0.6	8244	400.5	1.561
823 K, x2 = 0.1675	9905	419.1	1.583
823 K, x2 = 0.4	9095	407.8	1.475
823 K, x2 = 0.6	8185	397.1	1.449
873 K, x2 = 0.1675	9862	415.6	1.495
873 K, x2 = 0.4	9042	403.9	1.358
873 K, x2 = 0.6	8138	393.9	1.333
873 K, x2 = 0.9	6977	376.2	1.539
923 K, x2 = 0.1675	9814	411.9	1.425
923 K, x2 = 0.4	8991	400.2	1.266
923 K, x2 = 0.6	8098	390.7	1.211
923 K, x2 = 0.9	6938	372.6	1.357
973 K, x2 = 0.9	6892	368.6	1.212
1023 K, x2 = 0.9	6856	364.4	1.118
